Source: patent publication US6686393B1, “Pharmaceutical compositions having antiviral activity against human cytomegalovirus” (Murdock International Corporation, priority 1990, dated 2004)
“And” between values parts separate entries of the source, which are not always exact repeats. Equal entries are not always repeated. “Also recorded” adds a separate entry of the source. Where two headings read alike, the source gives them in different places.

Legend:
[1] = tested on: MRC-5 cells
[2] = tested on: HCMV, strain C8805-37 (DHPG-resistant); assay: microbe, parasite or virus in culture; type: cell-based, human cytomegalovirus; conditions: for inhibition at 0.01 µg/mL / inhibition at 0.032 µg/mL / inhibition at 0.1 µg/mL / inhibition at 0.32 µg/mL / inhibition at 1 µg/mL / inhibition at 3.2 µg/mL: Human betaherpesvirus 5, MRC5, read-out: Percent Inhibition Compared to Controls
[3] = tested on: human cytomegalovirus (HCMV), strain AD-169; assay: Antiviral test (plaque reduction) versus HCMV, strain AD-169, in MRC-5 cells; type: cell-based; conditions: for Activity in initial screening against HCMV in vitro: in words
[4] = tested on: human cytomegalovirus (HCMV) strain AD-169; assay: Antiviral effect of different exposure times, HCMV strain AD-169 (plaque reduction); type: cell-based
[5] = tested on: HCMV, strain AD-169; assay: Virucidal test versus HCMV, strain AD-169; type: cell-based, human cytomegalovirus; conditions: in words
[6] = Example 3, cells exposed 4 days
[7] = Table 9 summary, two values = two experiments
[8] = Table 10 summary, DHPG resistant HCMV test
[9] = Human betaherpesvirus 5, AD169, MRC5, read-out: % Reduction
[10] = 10 μg/ml, Example 2, ethanol stock (protohypericin in DMSO), cells exposed 6 or more days

With O=C1c2ccccc2C(=O)c2c1ccc(O)c2O [Alizarin, alizarin] the CD50 [1, 6] was >10 µg/mL, the CD50 ([1]; Example 5) was > 10 µg/mL and ~13 µg/mL and the CD50 [1, 7] was >10 µg/mL. The CD50 [1, 8] was >10 µg/mL, the inhibition at 10 µg/mL ([2]; Human betaherpesvirus 5, MRC5, 96 h, read-out: Percent Inhibition Compared to Controls) was 97% and the inhibition at 0.01 µg/mL [2] was 0%. For the same compound, the inhibition at 0.032 µg/mL [2] was 19%, the inhibition at 0.1 µg/mL [2] was 0% and the inhibition at 0.32 µg/mL [2] was 0%. The inhibition at 1 µg/mL [2] was 21%, the inhibition at 3.2 µg/mL [2] was 75% and the “Activity against HCMV” value [3] was “show activity; also recorded: active”. The inhibition at 0.01 µg/mL [3, 9] was 0%, the inhibition at 0.032 µg/mL [3, 9] was 0% and the inhibition at 0.1 µg/mL [3, 9] was 0%. For the same compound, the inhibition at 0.32 µg/mL [3, 9] was 0%, the inhibition at 1 µg/mL [3, 9] was 0% and the inhibition at 3.2 µg/mL [3, 9] was 0%. For the same compound, the inhibition at 10 µg/mL [3, 9] was 96%.

O=C1c2cccc(O)c2C(=O)c2c(O)cccc21 [1,8-Dihydroxyanthraquinone, 1,8-dihydroxyanthraquinone] was tested, and the CD50 ([1]; human) was >10 µg/mL, the “Number of Plaques” value ([3]; 0.01 μg/ml, Example 6) was 10 and the “Number of Plaques” value ([3]; 0.01 μg/ml, Example 7) was 26. For the same compound, the “Number of Plaques” value ([3]; 0.032 μg/ml, Example 6) was 9, the “Number of Plaques” value ([3]; 0.032 μg/ml, Example 7) was 20 and the “Number of Plaques” value ([3]; 0.1 μg/ml, Example 6) was 10. For the same compound, the “Number of Plaques” value ([3]; 0.1 μg/ml, Example 7) was 22, the “Number of Plaques” value ([3]; 0.32 μg/ml, Example 6) was 12 and the “Number of Plaques” value ([3]; 0.32 μg/ml, Example 7) was 44. The “Number of Plaques” value ([3]; 1.0 μg/ml, Example 6) was 10, the “Number of Plaques” value ([3]; 1.0 μg/ml, Example 7) was 35 and the “Number of Plaques” value ([3]; 3.2 μg/ml, Example 6) was 8. The “Number of Plaques” value ([3]; 3.2 μg/ml, Example 7) was 42, the “Number of Plaques” value ([3]; 10.0 μg/ml, Example 6) was 12 and the “Number of Plaques” value ([3]; 10.0 μg/ml, Example 7) was 30. The inhibition at 0.01 µg/mL ([3]; Human betaherpesvirus 5, AD169, MRC5, 0.01 μg/ml, Example 6, read-out: % Reduction) was 0%, the inhibition at 0.01 µg/mL ([3]; Human betaherpesvirus 5, AD169, MRC5, 0.01 μg/ml, Example 7, read-out: % Reduction) was 0% and the inhibition at 0.032 µg/mL ([3]; Human betaherpesvirus 5, AD169, MRC5, 0.032 μg/ml, Example 6, read-out: % Reduction) was 0%. For the same compound, the inhibition at 0.032 µg/mL ([3]; Human betaherpesvirus 5, AD169, MRC5, 0.032 μg/ml, Example 7, read-out: % Reduction) was 37%, the inhibition at 0.1 µg/mL ([3]; Human betaherpesvirus 5, AD169, MRC5, 0.1 μg/ml, Example 6, read-out: % Reduction) was 0% and the inhibition at 0.1 µg/mL ([3]; Human betaherpesvirus 5, AD169, MRC5, 0.1 μg/ml, Example 7, read-out: % Reduction) was 31%. For the same compound, the inhibition at 0.32 µg/mL ([3]; Human betaherpesvirus 5, AD169, MRC5, 0.32 μg/ml, Example 6, read-out: % Reduction) was 0%, the inhibition at 0.32 µg/mL ([3]; Human betaherpesvirus 5, AD169, MRC5, 0.32 μg/ml, Example 7, read-out: % Reduction) was 0% and the inhibition at 1 µg/mL ([3]; Human betaherpesvirus 5, AD169, MRC5, 1.0 μg/ml, Example 6, read-out: % Reduction) was 0%. For the same compound, the inhibition at 1 µg/mL ([3]; Human betaherpesvirus 5, AD169, MRC5, 1.0 μg/ml, Example 7, read-out: % Reduction) was 0%, the inhibition at 3.2 µg/mL ([3]; Human betaherpesvirus 5, AD169, MRC5, 3.2 μg/ml, Example 6, read-out: % Reduction) was 0% and the inhibition at 3.2 µg/mL ([3]; Human betaherpesvirus 5, AD169, MRC5, 3.2 μg/ml, Example 7, read-out: % Reduction) was 0%. For the same compound, the inhibition at 10 µg/mL ([3]; Human betaherpesvirus 5, AD169, MRC5, 10.0 μg/ml, Example 6, read-out: % Reduction) was 0%, the inhibition at 10 µg/mL ([3]; Human betaherpesvirus 5, AD169, MRC5, 10.0 μg/ml, Example 7, read-out: % Reduction) was 0% and the “Activity against HCMV” value ([3]; statement in words on the plaque reduction results, listed as 1,8-dihydroxy anthraquinone) was “Slight activity”. The “Activity against HCMV” value ([3]; statement in words on the plaque reduction results, listed as 1,8-dihydroxyanthraquinone) was “show activity; also recorded: activity but at lower levels”.

Cc1cc(O)c2c(c1)C(C1c3cc(C)cc(O)c3C(=O)c3c(O)cc(O)cc31)c1cc(O)cc(O)c1C2=O (stereo not shown) [Emodin Bianthrone (mixed), emodin bianthrone] was tested, and the CD50 ([1]; Example 2, cells exposed 6 or more days) was 1.1 µg/mL, the CD50 [1, 6] was 1.8 µg/mL and the CD50 [1, 7] was 1.1 µg/mL. The CD50 [1, 8] was 1.8 µg/mL, the Plaque reduction ([4]; 4 hour exposure to the cells) was ~60% and the “Exposure time at which complete inhibition of plaques is seen” value ([4]; concentration chosen to cause 100% plaque reduction on full exposure) was 6 h. The Antiviral effect ([4]; only 2 hours of exposure) was “no effect”, the “Virucidal activity against HCMV” value [5] was “negligible virucidal activity” and the “Activity against DHPG resistant HCMV strain” value [2] was “retain essentially the same activity”. For the same compound, the “Percent Inhibition of Plaque Numbers (Compared to Virus Controls)” value (“Percent Inhibition of Plaque Numbers” below) ([3]; 0.01 μg/ml, Example 2) was 0%, the “Percent Inhibition of Plaque Numbers” value ([3]; 0.032 μg/ml, Example 2) was 0% and the “Percent Inhibition of Plaque Numbers” value ([3]; 0.1 μg/ml, Example 2) was 0%. For the same compound, the “Percent Inhibition of Plaque Numbers” value ([3]; 0.32 μg/ml, Example 2) was 0%, the “Percent Inhibition of Plaque Numbers” value ([3]; 1.0 μg/ml, Example 2) was 100% and the “Percent Inhibition of Plaque Numbers” value ([3]; 3.2 μg/ml, Example 2) was “toxic”. The “Percent Inhibition of Plaque Numbers” value [3, 10] was “toxic”, the “Activity in initial screening against HCMV in vitro” value [3] was “active” and the “Activity against HCMV” value ([3]; statement in words on the plaque reduction results) was “show activity; also recorded: good biological activity”.

Cc1cc(O)c2c(c1)Cc1cc(O)cc(O)c1C2=O [Emodin Anthrone, emodin anthrone] was tested, and the CD50 ([1]; human, 4 days) was 2.6 µg/mL, the “Activity against DHPG resistant HCMV strain” value [2] was “shows activity; also recorded: active” and the “Percent Inhibition Compared to Controls” value [2] was “toxic”. It also gave an inhibition at 0.01 µg/mL [2] of 0%, an inhibition at 0.032 µg/mL [2] of 0% and an inhibition at 0.1 µg/mL [2] of 0%. The inhibition at 0.32 µg/mL [2] was 0%, the inhibition at 1 µg/mL [2] was 24% and the inhibition at 3.2 µg/mL [2] was 100%. For the same compound, the “Percent Inhibition of Plaque Numbers” value ([3]; 3.2 μg/ml, Example 2) was “toxic”, the “Percent Inhibition of Plaque Numbers” value [3, 10] was “toxic” and the inhibition at 0.01 µg/mL ([3]; Human betaherpesvirus 5, AD169, MRC5, 0.01 μg/ml, Example 2, read-out: Percent Inhibition of Plaque Numbers (Compared to Virus Controls)) was 0%. For the same compound, the inhibition at 0.032 µg/mL ([3]; Human betaherpesvirus 5, AD169, MRC5, 0.032 μg/ml, Example 2, read-out: Percent Inhibition of Plaque Numbers (Compared to Virus Controls)) was 0%, the inhibition at 0.1 µg/mL ([3]; Human betaherpesvirus 5, AD169, MRC5, 0.1 μg/ml, Example 2, read-out: Percent Inhibition of Plaque Numbers (Compared to Virus Controls)) was 0% and the inhibition at 0.32 µg/mL ([3]; Human betaherpesvirus 5, AD169, MRC5, 0.32 μg/ml, Example 2, read-out: Percent Inhibition of Plaque Numbers (Compared to Virus Controls)) was 0%. For the same compound, the inhibition at 1 µg/mL ([3]; Human betaherpesvirus 5, AD169, MRC5, 1.0 μg/ml, Example 2, read-out: Percent Inhibition of Plaque Numbers (Compared to Virus Controls)) was 0% and the “Activity in initial screening against HCMV in vitro” value [3] was “not active”.
